Experiments:
[1] = system: LNCaP cells; experiment: MTT viability/toxicity assay, LNCaP; type: cell-based; conditions: 48 h
Method: Cells were seeded in a 96 well plate at 1×10^4 cells/well and allowed to adhere overnight in the presence of FBS or CSS. The following day treatment was added to the wells and the plates were incubated for 24 h or 48 h. After incubation, 50 μL of MTT (2 mg/mL) was added to each well and incubated in the dark for 4 h. After incubation 150 μL of the media/MTT solution was removed and 100 μL of DMSO was added to each well and incubated for 15 min. Absorbance at 570 nm was measured using a ClarioStar Plate Reader (BMG LabTech, Ortenburg, Germany).

[2] = system: RWPE1 cells; experiment: Cell Titer Glo cell viability assay, RWPE1; type: cell-based; conditions: 10 μM; after 24 h and 48 h; serum free medium with EGF and BPE
Method: FIGS. 4A-4B show cellular toxicity of lead compounds in nonmalignant androgen independent prostate-derived cell lines. (4A) PNT1A cells were plated in a 96-well plate at 1×10^4 cell/well in the presence of FBS or CSS. Cells were allowed to attach overnight and were treated with either vehicle (DMSO) or 10 μM of indicated compound. At 24 and 48 h, cellular viability was compared using the Cell Titer Glo Luminescent Cell Viability kit. (4B) RWPE1 cells were plated in a 96-well plate at 1×10^4 cells/well using the specified serum free media. Cells were allowed to attach overnight and treated with 10 μM of indicated compound.
Cell viability was determined using the Cell Titer Glo Cell Viability Assay (Promega, Madison, Wis.), as recommended by manufacturer. All experiments were performed in quadruplicate.
Next, whether the same concentration of compounds decreases the viability of the AR negative and nonmalignant prostate derived cells, PNT1A and RWPE1, was tested.

[3] = system: LAPC4 cells; experiment: RTCA impedance proliferation assay, LAPC4; type: cell-based, human; conditions: 10 μM; medium with both FBS and CSS
Method: (5A-5B) LNCaP cells were plated onto xCelligence E-plates at 10^4 cells per well in medium supplemented with either 10% FBS (5A) or 10% CSS (5B) serum. Cells attached overnight and were treated with vehicle (DMSO) or 10 μM of the indicated compounds. (5C-5D) LAPC4 cells were plated at 5×10^4 cells per well onto xCelligence E-plates in media supplemented with FBS (5C) or CSS (5D) and allowed to attach overnight. Treatment was conducted as in (5A-5B) and impedance measured continuously in 30 min intervals. […] Proliferation assays were done using Roche DP Real Time Cell Analyzer (RTCA), as described by the manufacturer. Background impedance was established after incubating E-plates (Acea Biosciences, San Diego, Calif.) with 50 μL media at room temperature for 30 min and placed in RTCA. Cells were then seeded in 100 μL per well. Cells attached overnight and then treated. During attachment stage and after treatment impedance was measured every 30 min. Impedance is represented by cell index and is calculated as follows: CI=(Zi−Zo)/15Ω where Zi is impedance at an individual time point, and Zo is the background impedance. Average CI was calculated from four wells per treatment at each time point and normalized to the impedance immediately after compound addition.

[4] = biological target: LIG I (Homo sapiens, UniProt P18858); experiment: LIG I activity on nicked substrate; type: biochemical; conditions: 5 nM LIG I
Chain of LIG I (P18858 whole entry): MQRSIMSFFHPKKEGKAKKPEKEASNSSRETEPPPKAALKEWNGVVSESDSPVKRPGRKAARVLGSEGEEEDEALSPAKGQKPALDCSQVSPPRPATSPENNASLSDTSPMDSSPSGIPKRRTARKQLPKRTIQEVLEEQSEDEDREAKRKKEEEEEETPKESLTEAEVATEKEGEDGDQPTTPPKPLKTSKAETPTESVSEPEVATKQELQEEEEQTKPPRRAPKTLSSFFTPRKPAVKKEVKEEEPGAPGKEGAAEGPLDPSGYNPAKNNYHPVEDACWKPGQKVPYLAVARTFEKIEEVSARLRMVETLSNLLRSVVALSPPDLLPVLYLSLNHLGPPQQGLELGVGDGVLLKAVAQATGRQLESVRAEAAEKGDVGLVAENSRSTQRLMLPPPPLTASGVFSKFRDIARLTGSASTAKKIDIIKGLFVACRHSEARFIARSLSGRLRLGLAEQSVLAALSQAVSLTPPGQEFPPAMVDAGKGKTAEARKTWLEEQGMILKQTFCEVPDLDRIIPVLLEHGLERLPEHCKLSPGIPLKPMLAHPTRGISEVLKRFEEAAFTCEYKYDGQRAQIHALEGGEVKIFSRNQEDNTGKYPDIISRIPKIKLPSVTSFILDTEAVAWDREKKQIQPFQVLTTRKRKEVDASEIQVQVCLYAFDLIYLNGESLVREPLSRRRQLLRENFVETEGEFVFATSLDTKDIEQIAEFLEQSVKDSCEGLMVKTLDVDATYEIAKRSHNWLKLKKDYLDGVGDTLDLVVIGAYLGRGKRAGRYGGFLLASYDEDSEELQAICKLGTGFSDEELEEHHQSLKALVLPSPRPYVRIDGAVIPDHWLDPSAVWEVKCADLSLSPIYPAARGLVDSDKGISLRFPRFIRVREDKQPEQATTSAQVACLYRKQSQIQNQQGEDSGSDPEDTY
Method: Lane 1 represents the substrate only. Lanes 2 and 3 indicates the reaction mixture with 5 nM LIG I in the absence and presence of DMSO. […] The substrate was ^32P-labeled at the 5′-end of the upstream strand and is illustrated above the gel. The experiments were repeated at least three times. Representative gel is illustrated. Quantification of the results is shown below the gel. Two-way ANOVA with Tukey's multiple comparison posttests was used to determine statistically significant differences. * signifies p<0.05 compared to the control reaction with LIG I and DMSO. […] Lane 1 represents the substrate only. Lanes 2 and 3 indicates the reaction mixture with 5 nM pol β in the absence and presence of DMSO. […] The substrate was ^32P-labeled at the 5′-end of the upstream strand and is illustrated above the gel. The experiments were repeated at least three times. Quantification of the results are shown below the gel. Two-way ANOVA with Tukey's multiple comparison posttests was used to determine statistical significance. * signifies p<0.05 compared to the control reaction with pol β and DMSO.
BER reactions were terminated by adding 2× stopping buffer containing 95% formamide and 10 mM EDTA. Reaction mixtures were then denatured at 95° C. for 5 min and separated by 15% urea-denaturing polyacrylamide gel electrophoresis. Substrates and products were detected and analyzed using a Pharos FX Plus PhosphorImager (Bio-Rad, Hercules, Calif.).

[5] = system: LNCaP cells; experiment: RTCA impedance proliferation assay, LNCaP; type: cell-based; conditions: 10 μM; for LNCaP cell proliferation, concentration dependence: 1 μM and 0.1 μM
Method: (5A-5B) LNCaP cells were plated onto xCelligence E-plates at 10^4 cells per well in medium supplemented with either 10% FBS (5A) or 10% CSS (5B) serum. […] (5C-5D) LAPC4 cells were plated at 5×10^4 cells per well onto xCelligence E-plates in media supplemented with FBS (5C) or CSS (5D) and allowed to attach overnight. Treatment was conducted as in (5A-5B) and impedance measured continuously in 30 min intervals. […] Background impedance was established after incubating E-plates (Acea Biosciences, San Diego, Calif.) with 50 μL media at room temperature for 30 min and placed in RTCA. Cells were then seeded in 100 μL per well. Cells attached overnight and then treated. During attachment stage and after treatment impedance was measured every 30 min. Impedance is represented by cell index and is calculated as follows: CI=(Zi−Zo)/15Ω where Zi is impedance at an individual time point, and Zo is the background impedance. Average CI was calculated from four wells per treatment at each time point and normalized to the impedance immediately after compound addition.

## C[C@@H]1C/C=C/C=C/C=C/C=C/[C@H](O[C@@H]2O[C@H](C)[C@@H](O)[C@H](N)[C@@H]2O)C[C@@H]2O[C@](O)(C[C@@H](O)C[C@H]3O[C@@H]3/C=C/C(=O)O1)C[C@H](O)[C@H]2C(=O)O [natamycin]
[1]; CSS medium
  concentration reducing viability of LNCaP cells: ≥ 0.1 µM
[1]; medium supplemented with FBS
  concentration required to reduce LNCaP viability: ≥ 2.5 µM
[2]
  RWPE1 cell viability: significantly decreased
[3]
  LAPC4 cellular proliferation and attachment: abolished
[4]; 0.5 μM natamycin
  reduction of the activity of LIG I: 3.5 fold
[4]; 5 μM natamycin
  decrease of the activity of LIG I: 14 fold
[4]; at 1 (unit not given) natamycin
  reduction of the activity of LIG I: 3.5 fold
[5]; FBS medium
  LNCaP cell proliferation, concentration dependence: significantly inhibited by all concentrations
[5]; medium with CSS
  LNCaP cell proliferation, concentration dependence: 10 μM and 1 μM were inhibitory
[5]; FBS
  LNCaP cellular proliferation: slowest proliferation rate
[5]; androgen depleted medium (CSS)
  LNCaP cellular impedance: abolished cellular impedance
